Source: article PMC4988473, “Evaluation of Three Amorphous Drug Delivery Technologies to Improve the Oral Absorption of Flubendazole” (Journal of Pharmaceutical Sciences, 2016)
Values after ≈ are worked out from the molar mass of the structure shown. Like-named read-outs stand apart in the source and are kept apart here.

Tests used:
pKa of flubendazole = assay type: physicochemical
[1] = Apparent permeability (Papp); assay type: in vitro ADME; details: not told, AB
Description: (§1) Table 1 Physicochemical Properties of Flubendazole (FLU) | column: Value

Onchocerca volvulus = test system: Onchocerca volvulus; set-up: method as in PMID 6130195; details: after 12 months of follow-up; 5 weekly injections; cited from earlier work
[2] = Solubility in ambient conditions; assay type: physicochemical
LogP of flubendazole = assay type: physicochemical
Description: as §1

## COC(=O)Nc1nc2cc(C(=O)c3ccc(F)cc3)ccc2[nH]1 [FLU, flubendazole]
pKa of flubendazole
  pKa: 9.6
pKa of flubendazole; carbamate group
  pKa: 3.6
[1]
  Papp at 10 μM: 33.8 ×10⁻⁶ cm/s
Onchocerca volvulus
  Activity against Onchocerca volvulus compared with diethylcarbamazine: superior activity
[2]; acetone, organic solvent or mixture, read-out: Solubility in acetone
  solubility: 180 µg/mL (≈ 0.575 mM)
[2]; dichloromethane, organic solvent or mixture, read-out: Solubility in dichloromethane
  solubility: 140 µg/mL (≈ 0.447 mM)
[2]; formic acid, organic solvent or mixture, read-out: Solubility in formic acid
  solubility: 340000 µg/mL (≈ 1090 mM)
[2]; methanol, organic solvent or mixture, read-out: Solubility in methanol
  solubility: 110 µg/mL (≈ 0.351 mM)
[2]; water, read-out: Solubility in water
  solubility: 5 µg/mL (≈ 0.016 mM)
LogP of flubendazole
  logP: 3
